# Patent publication US12616203B2, “Use of 3-isoxazolidinones compounds as selective herbicides” (FMC Corporation, priority 2014, dated 2026)
# Where two headings read alike, the source gives them in different places.
# How the values were obtained:
# [1] = test system: weeds; sweet corn, yellow corn, and sorghum; experiment: Ex31 PRE greenhouse; format: in vivo; conditions: weed and rate in the words
# Text: Flats were watered and fertilized routinely after treatment application.
# barnyardgrass (BG) = experiment: Ex5 PRE greenhouse, % control; format: in vivo, Echinochloa crus-galli; conditions: 28 DAT, g ai/ha by row: r10-26 2,4-DC 50/100/200 (3 rows each) + mesotrione 25/50/100 (cycling)
# Experimental: (§1) Test compositions containing 2,4-DC Example 1C and mesotrione (Callisto® Herbicide, 40% active ingredient, Syngenta) and mixtures of 2-(2,4-dichlorophenyl)methyl-4,4-dimethyl-3-isoxazolidinone and mesotrione, were diluted with water to provide the appropriate test rate concentration.
# (§2) The test weeds were barnyardgrass (BG) (Echinochloa crus-galli), jimsonweed (PA) (Datura stramonium), velvetleaf (VL) (Abutilon theophrasti), common cockelbur (CC) (Xanthium strumarium) and hairy beggarticks (HB) (Bidens pilosa). Crops included in the evaluation were field corn and sorghum.
# (§3) For pre-emergence testing, four disposable fiber flats (6″ by 10″) for each rate of application of each herbicide solution were filled with top soil, to which seeds of each species were planted in furrows made by a template pressed on the top of the soil. The furrows with seeds were covered with soil and were watered well before application of the test compounds. Flats designated for treatment were placed in a spray chamber having a static platform and a movable sprayer and height of the spray nozzle was 10.5 inches above the soil level. Once the sprayer was calibrated using water for spray volume of 30 gallons per acre, flats were sprayed with sprayer at a speed to receive a coverage equivalent of 30 gallons per acre.
# (§4) The application rates are those shown in Table 4 below for the individual herbicidal solutions and the herbicide compositions of the present invention. The pre-emergence flats were immediately placed in the greenhouse and watered lightly after treatment. Thereafter they were regularly watered and fertilized for the duration of the test. The control of weeds and injury to crops was evaluated in each experimental test at 28 days after treatment (DAT). […] Percent control was determined by a method similar to the 0 to 100 rating system disclosed in “Research Methods in Weed Science,” 2nd ed., B. Truelove, Ed.; Southern Weed Science Society; Auburn University, Auburn, Ala., 1977.
# jimsonweed = experiment: Ex5 PRE greenhouse, % control; format: in vivo, Datura stramonium; conditions: 28 DAT, g ai/ha by row: r10-26 2,4-DC 50/100/200 (3 rows each) + mesotrione 25/50/100 (cycling)
# Experimental: as §1, §2, §3, §4
# weeds; Sugarcane (CTC20) = experiment: Ex23 PRE greenhouse; conditions: 28 DAT, weed and rate in the words
# Experimental: (Ipomoea spp). The tested crop in this study was Sugarcane (CTC20).
# Sugarcane was direct seeded into 6″ plastic pots using 3-4″ sugarcane setts, oriented bud up, with bud leaf shield removed. 2,4 DC and sulfentrazone were applied alone or combined as tank-mix at each rate mentioned below. […] Treatments were replicated 3 times. […] Thereafter flats were watered and fertilized routinely. […] Visual percent sugarcane injury was recorded at 21 and 28 DAT, using a scale of 0 (no injury, observed as bleaching, stunting or necrosis) to 100 (complete plant death).
# velvetleaf (VL) = experiment: Ex5 PRE greenhouse, % control; format: in vivo, Abutilon theophrasti; conditions: 28 DAT, g ai/ha by row: r10-26 2,4-DC 50/100/200 (3 rows each) + mesotrione 25/50/100 (cycling)
# Experimental: as §1, §2, §3, §4
# [2] = test system: sweet corn, yellow corn, and sorghum; conditions: PRE; crop and rate in the words
# Text: Treatments were also applied ot sweet corn, yellow corn, and sorghum.
# Treatments were applied before the emergence of Jimsonweed, velvetleaf, hairy beggarticks, common cocklebur, barnyardgrass, sweet corn, yellow corn, and sorghum. Plant species were planted in fiber flats (6″×10″) containing Pennington soil and flats were watered well before application and watered lightly after application. Flats were watered and fertilized routinely after treatment application.
# [3] = test system: weeds; Sugarcane (var. CTC 20); experiment: Ex17 PRE greenhouse; format: in vivo; conditions: weed and rate in the words
# Experimental: In this example a study was conducted to determine weed efficacy and sugarcane injury when 2,4 DC or isoxaflutole are applied either alone or tank-mix as preemergence against the weeds: Ivyleaf morningglory (Ipomoea hederacea, IPOHE), hairy beggartickss (Bidens pilosa, BIDPI), yellow nutsedge (Cyperus esculentus, CYPES), large crabgrass (Digitaria sanguinalis, DIGSA), and redroot pigweed (Amaranthus retroflexus, AMARE). The crop tested in this study was Sugarcane (var. CTC 20).
# To determine weed efficacy and sugarcane selectivity, 2,4 DC (SC 36%) and isoxaflutole (Balance Flexx®, 20%) were applied PRE either alone or as tank-mix partners at rates mentioned below. 2,4 DC was applied at 500, 750, and 1000 g ai/ha while isoxaflutole was applied at 80, 100, and 120 g ai/ha. […] Treatments were applied PRE to sugarcane (var. CTC 20), ivyleaf morningglory, hairy beggarticks, yellow nutsedge, large crabgrass, and redroot pigweed. Weed species were planted in fiber flats (6″×10″) containing Pennington soil. Soil was watered before application and watered lightly after application. Flats were watered and fertilized routinely after treatment application.
# Barley [4] = experiment: Ex40 POST 2,4-DC + metsulfuron-methyl, crop injury 7 DAT; format: in vivo; conditions: POST
# Experimental: (§5) Treatments were applied to barley and wheat crops.
# (§6) Non-ionic surfactant (NIS) was added to all treatments at 0.5% v/v. All plant species were direct seeded into 3″ plastic pots using metro-mix as growth media. At treatment common lambsquarters was 1.75″, common chickweed was 2″, wild mustard was 2.25″, wild oat was 5.5″, wild buckwheat was 2-5″, Italian ryegrass was 2-3″, wheat was 5.5″ and barley was 4.5″ in height. Plants were watered well before application and not watered 24 h after application. Plants were watered and fertilized routinely after treatment application. Each treatment was replicated four times. Treated flats were placed in randomized block design in the greenhouse.
# wheat [5] = experiment: as above; format: in vivo; conditions: POST
# Experimental: as §5, §6
# Italian ryegrass = experiment: Ex36 POST 2,4-DC + metsulfuron-methyl, % control 28 DAT, Colby; format: in vivo, Lolium perenne L. ssp. multiflorum
# Text: Crops screened were wheat and barley.
# weeds; barley and wheat = experiment: Ex40 POST greenhouse; format: in vivo; conditions: rate in the words
# Experimental: as §5, §6
# Sorghum = experiment: Ex46 PRE sorghum injury 7, 14, 21, 28 DAT; conditions: rate in the words
# Experimental: Treatments were applied to sorghum at the time of planting using Pennington soil. Each treatment was replicated four times. Soil was watered before and after application for herbicide activation. Plants were watered and fertilized routinely. […] Visual percent crop injury was recorded at 7, 14, 21, and 28 days after treatment using a scale of 0 (no injury) to 100 (complete plant death).
# weeds; Wheat and Barley = experiment: Ex41 POST greenhouse; format: in vivo; conditions: rate in the words
# Experimental: (§7) Treatments were applied to wheat and barley crops.
# (§8) Nonionic surfactant was added at 0.5% v/v in all treatments. Treatments were applied to wheat (5.5″), barley (5″), wild oat (5.5″), common chickweed (2″), wild buckwheat (3″), and common lambsquarters (2″). All plant species were direct seeded into 3″ plastic pots using metro-mix as growth media and pots were watered well before application and watered 24 h after application. Plants were watered and fertilized routinely after treatment application. Each treatment was replicated four times.
# Barley [6] = format: in vivo; conditions: 14 DAT, POST
# Experimental: as §7, §8
# wheat [7] = format: in vivo; conditions: 14 DAT, POST
# Experimental: as §7, §8
# [8] = r28-30 2,4-DC 50/100/200, r31-33 mesotrione 25/50/100, 25 g ai/ha
# [9] = r28-30 2,4-DC 50/100/200, r31-33 mesotrione 25/50/100, 50 g ai/ha
# [10] = r28-30 2,4-DC 50/100/200, r31-33 mesotrione 25/50/100, 100 g ai/ha
# [11] = thifensulfuron-methyl 50 g ai/ha
# [12] = thifensulfuron-methyl 75 g ai/ha
# [13] = thifensulfuron-methyl 100 g ai/ha
smiles,measurement,setting,value
CS(=O)(=O)c1ccc(C(=O)C2C(=O)CCCC2=O)c([N+](=O)[O-])c1 [mesotrione],weed control in words,[1],alone gave control of velvetleaf and Jimsonweed at medium or highest rate while it controlled cocklebur and hairy beggarstick at the highest rate only
same,% Control BG,barnyardgrass (BG); [8],48%
same,% Control BG,barnyardgrass (BG); [9],61%
same,% Control BG,barnyardgrass (BG); [10],73%
same,% Control JW,jimsonweed; [8],68%
same,% Control JW,jimsonweed; [9],90%
same,% Control JW,jimsonweed; [10],93%
same,weed control in words,weeds; Sugarcane (CTC20),at 105 g controlled all weeds except morningglory
same,% Control VL,velvetleaf (VL); [8],73%
same,% Control VL,velvetleaf (VL); [9],87%
same,% Control VL,velvetleaf (VL); [10],100%
same,crop safety in words,[2],alone was safe on sweet corn and yellow corn at all three rates; safe on sorghum at 25 and 50 g
same,weed control in words,[3],at 105 g controlled all weeds except ivyleaf morningglory
"COC(=O)c1ccccc1S(=O)(=O)NC(=O)Nc1nc(C)nc(OC)n1 [Metsulfuron-methyl, metsulfuron-methyl, reference compound]","Y (% crop injury, metsulfuron-methyl alone)",Barley [4]; metsulfuron-methyl 2 g ai/ha,5%
same,"Y (% crop injury, metsulfuron-methyl alone)",Barley [4]; metsulfuron-methyl 3 g ai/ha,7%
same,"Y (% crop injury, metsulfuron-methyl alone)",Barley [4]; metsulfuron-methyl 4 g ai/ha,9%
same,"Y (% crop injury, metsulfuron-methyl alone)",wheat [5]; metsulfuron-methyl 2 g ai/ha,1%
same,"Y (% crop injury, metsulfuron-methyl alone)",wheat [5]; metsulfuron-methyl 3 g ai/ha,0%
same,"Y (% crop injury, metsulfuron-methyl alone)",wheat [5]; metsulfuron-methyl 4 g ai/ha,2%
same,Y,Italian ryegrass; metsulfuron-methyl alone 6 g ai/ha,6%
same,Y,Italian ryegrass; metsulfuron-methyl alone 9 g ai/ha,18%
same,Y,Italian ryegrass; metsulfuron-methyl alone 12 g ai/ha,16%
same,weed control / crop safety in words,weeds; barley and wheat,"alone controlled wild buckwheat, common chickweed, wild mustard, and common lambsquarters at all rates and was safe on both crops at all rates"
"CC1(C)CON(Cc2cc(Cl)ccc2Cl)C1=O [2,5-DC, 2-(2,5-dichlorophenyl)methyl-4,4-dimethyl-3-isoxazolidinone]",sorghum safety in words,Sorghum,safe on sorghum at rates ranging from 31 to 125 g ai/ha irrespective of rating timings
"COC(=O)c1sccc1S(=O)(=O)NC(=O)Nc1nc(C)nc(OC)n1 [Thifensulfuron-methyl, thifensulfuron-methyl, reference compound]",weed control / crop safety in words,weeds; Wheat and Barley,"alone controlled all weeds except wild oat, and was safe on both crops"
same,% crop injury for Thifensulfuron-M alone,Barley [6]; [11],2%
same,% crop injury for Thifensulfuron-M alone,Barley [6]; [12],2%
same,% crop injury for Thifensulfuron-M alone,Barley [6]; [13],2%
same,% crop injury for Thifensulfuron-M alone,wheat [7]; [11],0%
same,% crop injury for Thifensulfuron-M alone,wheat [7]; [12],0%
same,% crop injury for Thifensulfuron-M alone,wheat [7]; [13],1%
